The text below walks through data of patent US20240066027A1 (DOMAIN THERAPEUTICS, priority 2020, published 2024).

Series [1] has as its target T1, human PAR-2 (hPAR-2) receptor expressed in HEK-293 T cells in an endogenous manner (Homo sapiens, UniProt P55085).
T1 construct: human PAR-2 (hPAR-2) receptor expressed in HEK-293 T cells in an endogenous manner; endogenous in cells; host or cells: HEK-293 T cells
T1 sequence (P55085 26-397): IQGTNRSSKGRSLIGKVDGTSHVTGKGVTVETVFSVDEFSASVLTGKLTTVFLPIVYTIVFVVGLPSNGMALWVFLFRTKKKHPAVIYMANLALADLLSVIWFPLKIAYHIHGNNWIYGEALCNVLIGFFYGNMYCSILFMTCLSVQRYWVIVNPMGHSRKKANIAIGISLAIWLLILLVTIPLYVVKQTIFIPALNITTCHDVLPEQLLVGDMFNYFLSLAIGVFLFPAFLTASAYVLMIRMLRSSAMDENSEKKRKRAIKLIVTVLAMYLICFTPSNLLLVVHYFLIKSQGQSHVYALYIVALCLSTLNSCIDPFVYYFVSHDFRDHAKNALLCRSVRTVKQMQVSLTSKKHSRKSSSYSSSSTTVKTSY
The series can be described thus: In vitro human PAR-2 functional antagonist activity using calcium assays (Fluo4AM, FLIPR Tetra). The series is classed as cell-based. To be noted: HEK-293 T cells stimulated by an EC80 of the 2-Furoyl-LIGRLO-NH2 peptide after 10 min incubation with compound; 20 concentrations, duplicate, two independent experiments. In a few lines: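 Fluo4AM-loaded HEK-293 T cells were exposed to compound for 10 min to read agonist effect. They were then stimulated with an EC80 of 2-Furoyl-LIGRLO-NH2 and intracellular calcium was recorded for 5 more min on FLIPR. Antagonism was scored against buffer basal and EC80 agonist-alone signals.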

As for `CC(C)Cn1cc(C2CCOCC2)c2ccc(C(=O)N3CCNC(=O)C3(C)C)nc21` [Example 46, 4-(1-isobutyl-3-(tetrahydro-2H-pyran-4-yl)-1H-pyrrolo[2,3-b]pyridine-6-carbonyl)-3,3-dimethylpiperazin-2-one], the melting point (usually the temperature of the solid-liquid transition) was over 250 °C. Besides, the half-inhibitory concentration (IC50) (commonly the concentration that inhibits the measured activity by half) in series [1] was over 10 µM.

`CC(C)Cn1cc(-c2ccc(N(C)C)nc2)c2ccc(C(=O)N3CCNC(=O)C3(C)C)nc21` [Example 109, 4-(3-(6-(dimethylamino)pyridin-3-yl)-1-isobutyl-1H-pyrrolo[2,3-b]pyridine-6-carbonyl)-3,3-dimethylpiperazin-2-one] registered a melting point of 205 to 210 °C. Further, the 50% inhibitory concentration (IC50) in series [1] was 0.02 to 10 µM.

Consider `COc1ccc(-n2nc(CC(C)C)c3nc(C(=O)N4CCNC(=O)C4(C)C)ccc32)cn1` [Example 92, 4-(3-isobutyl-1-(6-methoxypyridin-3-yl)-1H-pyrazolo[4,3-b]pyridine-5-carbonyl)-3,3-dimethylpiperazin-2-one], for which the melting point is 189 to 192 °C. The IC50 in series [1] is over 10 µM.

`COc1ccc(-n2nc(CC(C)C)c3nc(C(=O)N4CCNC(=O)C4(C)C)ccc32)cc1` [Example 93, 4-(3-isobutyl-1-(4-methoxyphenyl)-1H-pyrazolo[4,3-b]pyridine-5-carbonyl)-3,3-dimethylpiperazin-2-one] yielded a melting point of 182 to 185 °C. The IC50 in series [1] is over 10 µM.

The compound `CC(C)Cn1cc(C2=CCOCC2)c2ccc(C(=O)N3CCNC(=O)C3(C)C)nc21` [Example 45, 4-(3-(3,6-dihydro-2H-pyran-4-yl)-1-isobutyl-1H-pyrrolo[2,3-b]pyridine-6-carbonyl)-3,3-dimethylpiperazin-2-one] registered a melting point of 225 to 230 °C. Further, in series [1], the half-inhibitory concentration (IC50) was over 10 µM.

For the compound `O=C(c1cc2c(cn1)c(-c1ccc(Cl)c(F)c1)nn2CC(F)(F)F)N1CCCOCC1` [Example 89, (3-(4-chloro-3-fluorophenyl)-1-(2,2,2-trifluoroethyl)-1H-pyrazolo[4,3-c]pyridin-6-yl)(1,4-oxazepan-4-yl)methanone], the melting point lay in the range of 84 to 88 °C. Moreover, in series [1], the half-inhibitory concentration (IC50) is over 10 µM.

With `Cc1ccc(-c2cn(CC(C)C)c3nc(C(=O)N4CCNC(=O)C4(C)C)ccc23)cc1` [Example 51, 4-[1-isobutyl-3-(p-tolyl)pyrrolo[2,3-b]pyridine-6-carbonyl]-3,3-dimethyl-piperazin-2-one], the melting point was in the range of 207 to 212 °C. Besides, the IC50 in series [1] lay within 0.02 to 10 µM.

Take `CC(C)Cn1cc(-c2ccc(C(F)(F)F)cc2)c2ccc(C(=O)N3CCNC(=O)C3(C)C)nc21` [Example 55, 4-[1-isobutyl-3-[4-(trifluoromethyl)phenyl]pyrrolo[2,3-b]pyridine-6-carbonyl]-3,3-dimethyl-piperazin-2-one]: the melting point lay in the range of 216 to 218 °C. The IC50 in series [1] fell in the range of 0.02 to 10 µM.

In turn, `CC(C)Cn1cc(-c2cncnc2)c2ccc(C(=O)N3CCNC(=O)C3(C)C)nc21` [Example 36, 4-(1-isobutyl-3-(pyrimidin-5-yl)-1H-pyrrolo[2,3-b]pyridine-6-carbonyl)-3,3-dimethylpiperazin-2-one] gave a melting point of 185 to 190 °C. In addition, the IC50 in series [1] is over 10 µM.

Consider `CC(C)Cn1cc(-c2cc(F)cc(F)c2)c2ccc(C(=O)N3CCNC(=O)C3(C)C)nc21` [Example 108, 4-(3-(3,5-difluorophenyl)-1-isobutyl-1H-pyrrolo[2,3-b]pyridine-6-carbonyl)-3,3-dimethylpiperazin-2-one], for which the melting point was 165 to 170 °C. Also, the 50% inhibitory concentration (IC50) in series [1] fell in the range of 0.02 to 10 µM.

With `COc1cc(-n2nc(C(C)(C)C)c3nc(C(=O)N4CCN(c5cc(C)c(C(=O)O)c(C)n5)CC4(C)C)ccc32)ccc1Cl` [Example 60, 6-(4-(3-(tert-butyl)-1-(4-chloro-3-methoxyphenyl)-1H-pyrazolo[4,3-b]pyridine-5-carbonyl)-3,3-dimethylpiperazin-1-yl)-2,4-dimethylnicotinic acid], the melting point was in the range of 127 to 139 °C. Also, the IC50 in series [1] is over 10 µM.

In turn, `CC(C)Cn1cc(-c2ccccc2)c2ccc(C(=O)N3CCNC(=O)C3(C)C)nc21` [Example 49, 4-(1-isobutyl-3-phenyl-pyrrolo[2,3-b]pyridine-6-carbonyl)-3,3-dimethyl-piperazin-2-one] came in with a melting point of 175 to 178 °C. Moreover, in series [1], the half-maximal inhibitory concentration (IC50) was 0.02 to 10 µM.

`COc1ccc(-c2cn(CC(C)C)c3nc(C(=O)N4CCNC(=O)C4(C)C)ccc23)cc1` [Example 111, 4-(1-isobutyl-3-(4-methoxyphenyl)-1H-pyrrolo[2,3-b]pyridine-6-carbonyl)-3,3-dimethylpiperazin-2-one]: the melting point lay within 195 to 200 °C. In addition, in series [1], the half-inhibitory concentration (IC50) lay within 0.02 to 10 µM.

On to `CC(C)Cc1nn(-c2ccc(C(F)(F)F)nc2)c2ccc(C(=O)N3CCNC(=O)C3(C)C)nc12` [Example 66, 4-(3-isobutyl-1-(6-(trifluoromethyl)pyridin-3-yl)-1H-pyrazolo[4,3-b]pyridine-5-carbonyl)-3,3-dimethylpiperazin-2-one], for which the melting point was 185 to 190 °C. Besides, in series [1], the half-inhibitory concentration (IC50) is over 10 µM.

As for `CC(C)Cc1nn(-c2ccc(OC(F)(F)F)cc2)c2ccc(C(=O)N3CCNC(=O)C3(C)C)nc12` [Example 79, 4-(3-isobutyl-1-(4-(trifluoromethoxy)phenyl)-1H-pyrazolo[4,3-b]pyridine-5-carbonyl)-3,3-dimethylpiperazin-2-one], the melting point lay within 185 to 187 °C. Also, the IC50 in series [1] was 0.02 to 10 µM.

In the case of `CC(C)Cn1cc(C2=CCNCC2)c2ccc(C(=O)N3CCNC(=O)C3(C)C)nc21` [Example 47, 4-(3-(1,2,3,6-tetrahydropyridin-4-yl)-1-isobutyl-1H-pyrrolo[2,3-b]pyridine-6-carbonyl)-3,3-dimethylpiperazin-2-one], the melting point is 140 to 145 °C. Besides, the IC50 in series [1] was over 10 µM.

In turn, `CC(C)Cn1cc(C2CCCCC2)c2ccc(C(=O)N3CCNC(=O)C3(C)C)nc21` [Example 48, 4-(3-cyclohexyl-1-isobutyl-1H-pyrrolo[2,3-b]pyridine-6-carbonyl)-3,3-dimethylpiperazin-2-one] yielded a melting point of 226 to 229 °C. Further, the IC50 in series [1] lay within 0.02 to 10 µM.

Turning to `CC(C)Cn1cc(-c2cnn(C)c2)c2ccc(C(=O)N3CCNC(=O)C3(C)C)nc21` [Example 44, 4-(1-isobutyl-3-(1-methyl-1H-pyrazol-4-yl)-1H-pyrrolo[2,3-b]pyridine-6-carbonyl)-3,3-dimethylpiperazin-2-one], the melting point is over 250 °C. Besides, the IC50 in series [1] is over 10 µM.

As to `Cc1ccccc1-c1cn(CC(C)C)c2nc(C(=O)N3CCNC(=O)C3(C)C)ccc12` [Example 52, 4-[1-isobutyl-3-(o-tolyl)pyrrolo[2,3-b]pyridine-6-carbonyl]-3,3-dimethyl-piperazin-2-one], the melting point was 225 to 230 °C. The IC50 in series [1] was 0.02 to 10 µM.

As for `CC(C)Cn1cc(-c2ccncc2)c2ccc(C(=O)N3CCNC(=O)C3(C)C)nc21` [Example 37, 4-(1-isobutyl-3-(pyridin-4-yl)-1H-pyrrolo[2,3-b]pyridine-6-carbonyl)-3,3-dimethylpiperazin-2-one], the melting point was in the range of 200 to 210 °C. In addition, the IC50 in series [1] is over 10 µM.

Compound `CC(C)Cn1cc(-c2ccc(C(F)(F)F)nc2)c2ccc(C(=O)N3CCNC(=O)C3(C)C)nc21` [Example 43, 4-(1-isobutyl-3-(6-(trifluoromethyl)pyridin-3-yl)-1H-pyrrolo[2,3-b]pyridine-6-carbonyl)-3,3-dimethylpiperazin-2-one] showed a melting point of over 250 °C. Also, the concentration for half-maximal inhibition (IC50) in series [1] is 0.02 to 10 µM.

The compound `CC(C)Cn1cc(N2CCCCC2)c2ccc(C(=O)N3CCNC(=O)C3(C)C)nc21` [Example 82, 4-(1-isobutyl-3-(piperidin-1-yl)-1H-pyrrolo[2,3-b]pyridine-6-carbonyl)-3,3-dimethylpiperazin-2-one] yielded a melting point of 233 to 237 °C. The IC50 in series [1] is 0.02 to 10 µM.

Consider `CC(C)Cn1cc(-c2ccc(C#N)nc2)c2ccc(C(=O)N3CCNC(=O)C3(C)C)nc21` [Example 110, 5-(6-(2,2-dimethyl-3-oxopiperazine-1-carbonyl)-1-isobutyl-1H-pyrrolo[2,3-b]pyridin-3-yl)picolinonitrile], for which the melting point was 260 to 265 °C. Also, the concentration for half-maximal inhibition (IC50) in series [1] was in the range of 0.02 to 10 µM.

Take `O=C(c1cc2c(cn1)c(-c1ccc(Cl)c(F)c1)nn2CC(F)(F)F)N1CC2CCC(C1)O2` [Example 90, (8-oxa-3-azabicyclo[3.2.1]octan-3-yl)(3-(4-chloro-3-fluorophenyl)-1-(2,2,2-trifluoroethyl)-1H-pyrazolo[4,3-c]pyridin-6-yl)methanone]: the melting point lay within 198 to 200 °C. In addition, in series [1], the concentration for half-maximal inhibition (IC50) is over 10 µM.

In turn, `CC(C)Cn1cc(-c2ccc(F)cc2)c2ccc(C(=O)N3CCNC(=O)C3(C)C)nc21` [Example 56, 4-[1-isobutyl-3-[4-fluorophenyl]pyrrolo[2,3-b]pyridine-6-carbonyl]-3,3-dimethyl-piperazin-2-one] yielded a melting point of 192 to 194 °C. Also, the concentration for half-maximal inhibition (IC50) in series [1] is 0.02 to 10 µM.
